Patent US20020103111A1, “Inhibitors of MAdCAM-1-mediated interactions and methods of use therefor” (Millennium Pharmaceuticals, Inc., priority 1996, published 2002)
Like-named read-outs stand apart in the source and are kept apart here. Square brackets hold non-standard residues; d marks the D form. Ends that are not written are not given here. Peptide text beside a SMILES is read from it. * marks the point of attachment. Butanoyl(4-pyren-1-yl) = O=C(CCCc1ccc2ccc3cccc4ccc1c2c34)*; Cyclopentanecarbonyl = O=C(C1CCCC1)*; NMeL = CN[C@@H](CC(C)C)C(=O)O

Molecular target: T1, murine MAdCAM-1 (MAdCAM-1/mCk fusion protein); α4β7-bearing HUT 78 cells (Homo sapiens, UniProt P13612+P26010)
T1 construct: host or cells: HUT 78 cells (endogenous α4β7); The MAdCAM-1/mCk partner was made in house in baculovirus-infected Sf9 insect cells, used as neat supernatant and captured by rat anti-mCk antibody
Experiment: Adhesion of HUT 78 cells to MAdCAM-1/mCk fusion protein bound via capture antibody
Assay type: cell-based
Conditions: for IC50: HUT 78 cell adhesion to MAdCAM-1/mCk, average of two determinations; for % Adhesion Inhibition 500 μM: 500 μM compound
Protocol: The compounds of the present invention were evaluated for their biological properties.
A soluble fusion protein comprising murine MAdCAM-1 was produced in a baculovirus expression system and used in the adhesion assay. A fusion gene in which sequences encoding the signal peptide and extracellular domain of murine MAdCAM-1 were fused to sequences encoding a constant region of the murine kappa light chain (mCk) was constructed, and cloned into a baculovirus shuttle vector. Fusion protein produced from the resulting construct contained the integrin binding sequences of murine MAdCAM-1 at the amino-terminus, and the mCk sequence at the carboxy-terminus. Recombinant baculovirus encoding the fusion protein was harvested from infected Sf9 insect cells.
Human T-cell lymphoma cells (HUT 78 cells) activated with Mn^+2 were used for the adhesion assay in a 96-well format. HUT 78 cells were labelled by preincubation with ECECF-AM stain (Molecular Probes). Assays were conducted in a final volume of 200 μl. The adhesion of HUT 78 cells to MAdCAM-1/mCk fusion protein bound to wells via rat anti-mCk capture antibody was assessed in the presence or absence of each compound. […] Percent inhibition and IC50 values were determined.
HUT 78 cells (a human T cell lymphoma line; American Type Culture Collection, Accession No. ATCC TIB 161) were maintained in culture for up to one month in RPMI 1640 supplemented with 10% FCS, 20 mM HEPES, and Pen-Strep (1:100). Just prior to use in adhesion assays, cells were labeled with BCECF-AM as follows: 1×10^7 cells were pelleted at 1000 rpm for 10 minutes and resuspended in 25 mL cold PBS (Phosphate Buffered Saline). The cells were pelleted again, resuspended in cold PBS, and pelleted again. The cell pellet was resuspended in 25 ml PBS and labeled with 50 μl BCECF-AM (1 μg/μL in DMSO) for 30 minutes at 37° C. (BCECF-AM; 2′,7′-bis-(2-carboxyethyl)-5-(and-6)-carboxyflourescein, acetoxymethyl ester). The labeled cells were pelleted at 700 rpm for 10 minutes, resuspended in 25 ml cold Assay Buffer and pelleted.
The assay was performed in a 96-well format. Plates were coated overnight at 4° C. with 53 μl/well of a 5 μg/mL solution of rat anti-mCk in carbonate buffer. The plates were blocked for 1 hour at 37° C. with 100 μL/well of 1% BSA in PBS. The BSA/PBS solution was removed, and 50 μL of MAdCAM-mCk supernatant was added neat to each well. The assay was conducted under conditions in which capture antibody was the limiting reagent.
Cell adhesion was measured in the presence or absence of compounds. The compounds were resuspended in 100% DMSO, subsequently diluted 1:10 in water, and finally diluted again 1:10 in the assay: 50 μL of 2X Assay Bufler, 30 μL water, 20 μL of compound were added to each well. […] Cell adhesion occurred in 30 minutes at ambient temperature, after which plates were washed with 50 mM Tris/2 mM MnCl2, pH 7.2 using an EL 404 Microplate Autowasher (BIO-TEK Instruments) using the following wash parameters: wash volume=500 μL; two wash cycles; wash depth=80; aspirating after each wash.
Additional determinations were conducted as needed, so that each IC50 was determined over a range which encompassed the IC50. Over this range, Four different concentrations were tested in duplicate.
For each compound, a ratio was determined as follows: An average of the readings from duplicate wells was divided by an average of eight control wells (adhesion in the absence of any compound). […] In addition, the concentration (μM) of compound used was plotted against the resulting ratios.
The IC50 was then determined using Kaleidograph software (Abelbeck Software). The complete procedure was repeated again using duplicate wells for each point.

[1] = HuT78, read-out: % Adhesion Inhibition
[2] = HuT78, 500 μM compound, HUT 78 cells, Mn2+ activated, read-out: % Adhesion Inhibition 500 μM
[3] = HuT78, read-out: % Adhesion Inhibition 500 μM

C[C@@H](O)[C@H](NC(=O)[C@H](CC(=O)O)NC(=O)CCCc1ccc2ccc3cccc4ccc1c2c34)C(N)=O [Example 53, Pba-Asp-Thr]
inhibition at 100 µM [1]: 100%
IC50 (IC50 (μM)): 13.5 µM

NH2-His-Trp-Arg-Gly-Leu-Asp-Thr-Ser-Leu-Gly-Ser-Val (H-HWRGLDTSLGSV; not fully specified (C-terminus); printed as NH2-His-Trp-Arg-Gly-Leu-Asp-Thr-Ser-Leu-Gly-Ser-Val) [Example 56]
% Adhesion Inhibition 500 μM (HUT 78 cells, Mn2+ activated): 80%

CC(C)C[C@H](NC(=O)[C@H](CO)NC(=O)[C@@H](NC(=O)[C@H](CC(=O)O)NC(=O)[C@H](CC(C)C)NC(=O)c1cc(-c2ccccc2)cc(-c2ccccc2)c1)[C@@H](C)O)C(N)=O [Example 32, Dphb-Leu-Asp-Thr-Ser-Leu]
IC50 (read-out: IC50): 15 µM

CC(C)C[C@H](NC(=O)[C@H](CO)NC(=O)[C@@H](NC(=O)[C@H](CC(=O)O)NC(=O)[C@H](CC(C)C)NC(=O)C(c1ccccc1)(c1ccccc1)c1ccccc1)[C@@H](C)O)C(N)=O [Example 28, Tpa-Leu-Asp-Thr-Ser-Leu]
IC50 (read-out: IC50): 0.3 µM

CC(C)C[C@H](NC(=O)[C@H](CO)NC(=O)[C@@H](NC(=O)[C@H](CC(=O)O)NC(=O)[C@H](CC(C)C)NC(=O)c1ccc2cc3ccccc3cc2c1)[C@@H](C)O)C(N)=O [Example 38, 2-Anc-Leu-Asp-Thr-Ser-Leu]
IC50 (read-out: IC50): 5.4 µM

NH2-Arg-Val-His-Trp-Arg-Gly-Leu-Asp-Thr-Ser-Leu-Gly-Ser-Val-Gln (H-RVHWRGLDTSLGSVQ; not fully specified (C-terminus); printed as NH2-Arg-Val-His-Trp-Arg-Gly-Leu-Asp-Thr-Ser-Leu-Gly-Ser-Val-Gln) [Example 57]
% Adhesion Inhibition 500 μM (HUT 78 cells, Mn2+ activated): 90%

CC(=O)N(C)[C@@H](CC(C)C)C(=O)N[C@@H](CC(=O)O)C(=O)N[C@H](C(=O)N[C@@H](CO)C(=O)N[C@@H](CC(C)C)C(N)=O)[C@@H](C)O [Example 49, Ac-MeLeu-Asp-Thr-Ser-Leu]
IC50 (read-out: IC50): 150 µM

CC(C)C[C@H](NC(=O)[C@H](CO)NC(=O)[C@@H](NC(=O)[C@H](CC(=O)O)NC(=O)[C@H](CC(C)C)NC(=O)CCCCCc1ccccc1)[C@@H](C)O)C(N)=O [Example 18, Phx-Leu-Asp-Thr-Ser-Leu]
IC50 (read-out: IC50): 818 µM
inhibition at 500 µM [2]: 32%

CC(C)C[C@H](NC(=O)[C@H](CO)NC(=O)[C@@H](NC(=O)[C@H](CC(=O)O)NC(=O)[C@H](CC(C)C)NC(=O)Cc1ccccc1)[C@@H](C)O)C(N)=O [Example 26, Pha-Leu-Asp-Thr-Ser-Leu]
inhibition at 500 µM [3]: 38%
IC50 (IC50 (μM)): 2130 µM

CC(C)C[C@H](NC(=O)[C@H](CO)NC(=O)[C@@H](NC(=O)[C@H](CC(=O)O)NC(=O)[C@H](CC(C)C)NC(=O)C1C(C)(C)C1(C)C)[C@@H](C)O)C(N)=O [Example 25, Tpc-Leu-Asp-Thr-Ser-Leu]
IC50 (read-out: IC50): 121 µM
inhibition at 500 µM [2]: 39%

Ac-Lle-Asp-Thr-Ser-Leu [Example 46]
% Adhesion Inhibition 500 μM (HUT 78 cells, Mn2+ activated): 17%

CC(=O)N(C)[C@@H](CC(C)C)C(=O)N[C@@H](CC(C)C)C(=O)N[C@@H](CC(=O)O)C(=O)N[C@H](C(=O)N[C@@H](CO)C(=O)N[C@@H](CC(C)C)C(N)=O)[C@@H](C)O [Example 17, Ac-MeLeu-Leu-Asp-Thr-Ser-Leu] (Ac-[NMeL]LDTSL-NH2)
inhibition at 500 µM [2]: 28%

CC(=O)N[C@@H](CCCNC(=N)N)C(=O)NCC(=O)N[C@@H](CC(C)C)C(=O)N[C@@H](CC(=O)O)C(=O)N[C@H](C(=O)N[C@@H](CO)C(=O)N[C@@H](CC(C)C)C(N)=O)[C@@H](C)O [Example 8, Ac-Arg-Gly-Leu-Asp-Thr-Ser-Leu] (Ac-RGLDTSL-NH2)
inhibition at 500 µM [2]: 35%

CC(C)C[C@H](NC(=O)[C@H](CO)NC(=O)[C@@H](NC(=O)[C@H](CC(=O)O)NC(=O)C1CCCC1)[C@@H](C)O)C(N)=O [Example 50, Cpc-Asp-Thr-Ser-Leu] (Cyclopentanecarbonyl-DTSL-NH2)
IC50 (read-out: IC50): 8.9 µM

CC(=O)NCC(=O)N[C@@H](CC(C)C)C(=O)N[C@@H](CC(=O)O)C(=O)N[C@H](C(=O)N[C@@H](CO)C(=O)N[C@@H](CC(C)C)C(N)=O)[C@@H](C)O [Example 9, Ac-Gly-Leu-Asp-Thr-Ser-Leu] (Ac-GLDTSL-NH2)
inhibition at 500 µM [2]: 58%

CC(C)C[C@H](NC(=O)[C@H](CO)NC(=O)[C@@H](NC(=O)[C@H](Cc1ccc(O)cc1)NC(=O)[C@H](CC(C)C)NC(=O)CCCc1ccc2ccc3cccc4ccc1c2c34)[C@@H](C)O)C(N)=O [Example 42, Pba-Leu-Tyr-Thr-Ser-Leu] ({Butanoyl(4-pyren-1-yl)}-LYTSL-NH2)
inhibition at 500 µM [3]: 100%
IC50 (IC50 (μM)): 30 µM

CC(C)C[C@H](NC(=O)[C@H](CO)NC(=O)[C@@H](NC(=O)[C@H](C)NC(=O)[C@H](CC(C)C)NC(=O)CCCc1ccc2ccc3cccc4ccc1c2c34)[C@@H](C)O)C(N)=O [Example 39, Pba-Leu-Ala-Thr-Ser-Leu] ({Butanoyl(4-pyren-1-yl)}-LATSL-NH2)
inhibition at 250 µM [1]: 100%
IC50 (IC50 (μM)): 28 µM

CC(C)C[C@H](NC(=O)[C@H](CO)NC(=O)[C@@H](NC(=O)[C@H](CC(=O)O)NC(=O)[C@H](CC(C)C)NC(=O)Cc1ccc2ccc3cccc4ccc1c2c34)[C@@H](C)O)C(N)=O [Example 29, Paa-Leu-Asp-Thr-Ser-Leu]
IC50 (IC50 (μM)): 0.5 µM

CC(C)C[C@H](NC(=O)[C@H](CO)NC(=O)[C@@H](NC(=O)[C@H](CC(=O)O)NC(=O)[C@H](CC(C)C)NC(=O)CCCc1ccc2ccc3cccc4ccc1c2c34)[C@@H](C)O)C(N)=O [Example 23, Pba-Leu-Asp-Thr-Ser-Leu]
inhibition at 50 µM [1]: 88%
IC50 (IC50 (μM)): 2.8 µM

Ac-Arg-Gly-Leu-Asp-Thr-Ser-Leu-Gly (Ac-RGLDTSLG; not fully specified (C-terminus); printed as Ac-Arg-Gly-Leu-Asp-Thr-Ser-Leu-Gly) [Example 59]
% Adhesion Inhibition 500 μM (HUT 78 cells, Mn2+ activated): 75%

CCCCCCCc1ccc(C(=O)N[C@@H](CC(C)C)C(=O)N[C@@H](CC(=O)O)C(=O)N[C@H](C(=O)N[C@@H](CO)C(=O)N[C@@H](CC(C)C)C(N)=O)[C@@H](C)O)cc1 [Example 22, Hbz-Leu-Asp-Thr-Ser-Leu]
IC50 (read-out: IC50): 401 µM
inhibition at 500 µM [2]: 51%

C[C@@H](O)[C@H](NC(=O)[C@H](CC(=O)O)NC(=O)c1ccc2ccc3cccc4ccc1c2c34)C(N)=O [Example 52, Pca-Asp-Thr]
IC50 (read-out: IC50): 11 µM

CC(C)C[C@H](NC(=O)[C@H](CO)NC(=O)[C@@H](NC(=O)[C@H](CC(=O)O)NC(=O)[C@H](CC(C)C)NC(=O)CC(c1ccccc1)(c1ccccc1)c1ccccc1)[C@@H](C)O)C(N)=O [Example 37, Tphp-Leu-Asp-Thr-Ser-Leu]
IC50 (read-out: IC50): 14 µM

MeLeu-Leu-Asp-Thr-Ser-Leu ([NMeL]LDTSL) [Example 27]
% Adhesion Inhibition 500 μM (HUT 78 cells, Mn2+ activated): 54%
IC50 (read-out: IC50): 256 µM

Ac-Trp-Arg-Gly-Leu-Asp-Thr-Ser-Leu-Gly-Ser (Ac-WRGLDTSLGS; not fully specified (C-terminus); printed as Ac-Trp-Arg-Gly-Leu-Asp-Thr-Ser-Leu-Gly-Ser) [Example 60]
% Adhesion Inhibition 500 μM (HUT 78 cells, Mn2+ activated): 71%

Ac-Leu-Asp-Thr-Ser-Leu (Ac-LDTSL; not fully specified (C-terminus); printed as Ac-Leu-Asp-Thr-Ser-Leu) [Example 58]
% Adhesion Inhibition 500 μM (HUT 78 cells, Mn2+ activated): 71%

CC(C)C[C@H](NC(=O)[C@H](CO)NC(=O)[C@@H](NC(=O)[C@H](CC(=O)O)NC(=O)[C@H](CC(C)C)NC(=O)c1ccc2ccc3cccc4ccc1c2c34)[C@@H](C)O)C(N)=O [Example 34, Pca-Leu-Asp-Thr-Ser-Leu]
IC50 (IC50 (μM)): 2.1 µM
